In data set [1] the target is CDK6/cyclin D3 (Homo sapiens) (UniProt P30281+Q00534). Kind of data set: Inhibition of CDK6/CyclinD3 (unknown origin) at 100 nM preincubated for 15 mins followed by substrate and ATP addition incubated for 10 mins by ADP-glo luminescent assay relative to control. In kind it is protein-complex assay. As to conditions: time 25.0 min.
Data set [2] is described as follows: Half life in human liver microsomes in presence of NADPH incubated for 5 to 45 mins by LC/MS analysis. As to conditions: time 5-45 min. In kind it is ADME, Microsome.
The nature of data set [3]: Cmax in Sprague-Dawley rat at 10 mg/kg,iv administration measured upto 24 hrs by LC-MS/MS analysis. In kind it is ADME, organism-based. As to conditions: in vivo.
Data set [4] is described as follows: Clearance in Sprague-Dawley rat at 10 mg/kg,iv administration measured upto 24 hrs by LC-MS/MS analysis. In kind it is ADME, organism-based. The note with it: in vivo.
Data set [5] concerns the target CDK4/Cyclin D3 (Homo sapiens, UniProt P11802). Kind of data set: Inhibition of CDK4/CyclinD3 (unknown origin) preincubated for 15 mins followed by substrate and ATP addition incubated for 10 mins by ADP-glo luminescent assay. It is filed as protein-complex assay.
Data set [6] has as its system MDA-MB-231. Kind of data set: Induction of ferroptosis in human MDA-MB-231 cells assessed as increase in intracellular ferrous ion level at 0.5 to 2 uM incubated for 24 hrs by ferroOrange probe based flow cytometric analysis. As to conditions: dose 0.5-2 µM. In kind it is functional, cell-based.
For data set [7], the system named is MDA-MB-231. The data set is described as follows: Induction of ferroptosis in human MDA-MB-231 cells assessed as increase in intracellular ferrous ion level at 0.5 to 2 uM incubated for 24 hrs by ferroOrange probe based confocal laser scanning microscopic analysis. It is filed as functional, cell-based. As to conditions: dose 0.5-2 µM.
The subject of data set [8] is HCT-116. The data set is described as follows: Induction of ferroptosis in human HCT-116 cells assessed as downregulation of GPX4 expression incubated for 24 hrs by Western blotting analysis. It is filed as functional, cell-based.
In data set [9] the test system is MDA-MB-231. The data set is described as follows: Induction of cell cycle arrest in human MDA-MB-231 cells assessed as accumulation of cells at G1 phase at 0.5 to 2 uM incubated for 24 hrs by RNase/PI staining based flow cytometric analysis. In kind it is functional. As to conditions: dose 0.5-2 µM.
In data set [10] the test system is HCT-116. The data set is described as follows: Induction of cell cycle arrest in human HCT-116 cells assessed as downregulation of E2F1 expression at 0.5 to 2 uM incubated for 24 hrs by Western blotting analysis. In kind it is functional, cell-based. As to conditions: dose 0.5-2 µM.
Data set [11] concerns MDA-MB-231. The data set is described as follows: Induction of apoptosis in human MDA-MB-231 cells assessed as downregulation of BCL-2 expression at 0.5 to 2 uM incubated for 24 hrs by Western blotting analysis. It is filed as functional, cell-based. The note with it: dose 0.5-2 µM.
The subject of data set [12] is MDA-MB-231. The data set is described as follows: Antitumor activity against human MDA-MB-231 cells xenografted in BALB/c mouse assessed as tumor growth inhibition at 40 mg/kg,ip administrated for 21 consecutive days. In kind it is functional. The note with it: read-out: TGI.
The nature of data set [13]: Toxicity in BALB/c mouse xenografted with human MDA-MB-231 cells assessed as morphological change in heart at 40 mg/kg,ip administrated for 21 consecutive days by hematoxylin and eosin staining based analysis. It is filed as organism-based. The note with it: in vivo.
Data set [14] in a line: Toxicity in BALB/c mouse xenografted with human MDA-MB-231 cells assessed as morphological change in liver at 20 mg/kg,ip administrated for 21 consecutive days by hematoxylin and eosin staining based analysis. In kind it is organism-based. The note with it: in vivo.
Data set [15] is described as follows: Toxicity in BALB/c mouse xenografted with human MDA-MB-231 cells assessed as morphological change in spleen at 40 mg/kg,ip administrated for 21 consecutive days by hematoxylin and eosin staining based analysis. It is filed as organism-based. As to conditions: in vivo.
Data set [16] can be described thus: Toxicity in BALB/c mouse xenografted with human MDA-MB-231 cells assessed as morphological change in kidney at 20 mg/kg,ip administrated for 21 consecutive days by hematoxylin and eosin staining based analysis. It is filed as organism-based. As to conditions: in vivo.
Data set [17] in a line: Toxicity in BALB/c mouse xenografted with human MDA-MB-231 cells assessed as morphological change in kidney at 40 mg/kg,ip administrated for 21 consecutive days by hematoxylin and eosin staining based analysis. It is filed as organism-based. The note with it: in vivo.
For data set [18], the system named is MDA-MB-231. Kind of data set: Antitumor activity against human MDA-MB-231 cells xenografted in BALB/c mouse assessed as decrease in GPX4 expression at 20 mg/kg,ip administrated for 21 consecutive days by immunohistochemistry. It is filed as functional, organism-based.
The test system of data set [19] is MDA-MB-231. Kind of data set: Antitumor activity against human MDA-MB-231 cells xenografted in BALB/c mouse assessed as decrease in phosphorylated Rb expression at 20 mg/kg,ip administrated for 21 consecutive days by immunohistochemistry. In kind it is functional, organism-based.
Data set [20] in a line: Toxicity in ICR mouse assessed as lethal dose at ip administration for 14 days. The note with it: in vivo, time 14 day. It is filed as organism-based.
The test system of data set [21] is HepG2. The data set is described as follows: cells. As to conditions: Homo sapiens, HepG2, 48 h.
Description: Antiproliferative activity against human HepG2 cells assessed as inhibition of cell growth incubated for 48 hrs by CCK-8 assay

The source made the active and inactive calls. The calls are words filed in the database; no cut-off is given here.

This is an account of results in ChEMBL document CHEMBL5528035, “Design, Synthesis, and Biological Evaluation for First GPX4 and CDK Dual Inhibitors” (J Med Chem, 2024).

Sequence of CDK4/Cyclin D3 (P11802 whole entry): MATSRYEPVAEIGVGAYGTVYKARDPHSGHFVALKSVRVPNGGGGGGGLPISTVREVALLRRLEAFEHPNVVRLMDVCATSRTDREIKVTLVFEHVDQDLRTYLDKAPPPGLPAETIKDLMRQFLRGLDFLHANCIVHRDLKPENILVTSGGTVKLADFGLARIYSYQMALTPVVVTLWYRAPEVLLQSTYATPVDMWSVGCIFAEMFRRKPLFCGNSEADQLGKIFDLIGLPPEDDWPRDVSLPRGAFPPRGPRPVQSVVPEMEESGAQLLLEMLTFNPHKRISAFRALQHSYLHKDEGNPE
Sequence of CDK4/Cyclin D3 (P30281 whole entry, further chain): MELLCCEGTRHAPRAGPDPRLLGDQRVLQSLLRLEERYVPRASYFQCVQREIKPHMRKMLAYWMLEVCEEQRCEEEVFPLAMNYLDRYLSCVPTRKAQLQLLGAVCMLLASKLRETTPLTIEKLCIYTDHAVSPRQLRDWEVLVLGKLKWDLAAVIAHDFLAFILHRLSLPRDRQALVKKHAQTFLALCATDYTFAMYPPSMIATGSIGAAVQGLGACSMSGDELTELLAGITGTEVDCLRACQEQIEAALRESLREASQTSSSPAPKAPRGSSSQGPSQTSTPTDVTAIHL

For the compound `COc1ccc2c(c1)NC(=O)/C2=C1\Nc2ccccc2\C1=N/OCCCNC(=O)CCn1cc(COc2ccc(N(C(=O)CCl)C(C(=O)NCCc3ccccc3)c3cccs3)cc2Cl)nn1` (stereo unspecified), in data set [1], the inhibition was 51.8%. Besides, the half-life in [2] is 58.7 min. Besides, the concentration in [3] peaked (Cmax) at 9230 ng/mL. Moreover, the clearance in [4] was 10.2 mL/min/kg. The IC50 is 0.191 µM in data set [5] and 1.49 µM in data set [21]. Moreover, the outcome in data set [6], in data set [7], in data set [9], in data set [10], in data set [11] and in data set [18] was Active. For the same compound, the result in data set [19] was Active. Besides, the Activity entry in [8] was “Dose-Dependent Effect”; in data set [13], “Non-Toxic”; in data set [14], “Non-Toxic”; in [15], “Non-Toxic”; in [16], “Non-Toxic”; in data set [17], “Non-Toxic”. Also, the inhibition in vivo at 40 mg/kg in [12] worked out at 83.3%. Further, the 50% lethal dose (LD50) at 336 h in [20] worked out at 185 mg/kg.
